# Key:
# [1] = system: Heliothis virescens (Tobacco Budworm); test: Heliothis virescens (Tobacco Budworm): eggs on artificial diet in 24-well plate, larval mortality after 4 days; type: in vivo
# Procedure: Heliothis virescens (Tobacco Budworm)
# Eggs (0-24 h old) are placed in 24-well microtiter plate on artificial diet and treated with test solutions (DMSO) by pipetting. After an incubation period of 4 days, samples are checked for larval mortality.
# (§1) Columns 4 and 5 show the control observed from the compounds alone. […] When a compound applied alone gave no control at a particular rate, it is assumed that lower rates of that compound alone also give no control. DMET=deltamethrin, SPAT=spirotetramat, IMID=imidacloprid, B15=compound 15 in Table B.
# [2] = system: Tetranychus urticae (Two-Spotted Spider Mite); test: Tetranychus urticae (Two-Spotted Spider Mite): sprayed bean leaf discs, mobile stages mortality after 8 days; type: in vivo
# From the text: Tetranychus urticae (Two-Spotted Spider Mite)
# Bean leaf discs on agar in 24-well microtiter plates are sprayed with test solutions (DMSO). After drying, the leaf discs are infested with mite populations of mixed ages. 8 days later, discs are checked for mobile stages (I removed “mixed population”) mortality.
# as §1
compound,measurement,setting,value
"CCOC(=O)OC1=C(c2cc(C)ccc2C)C(=O)N[C@]12CC[C@@H](OC)CC2 [SPAT, spirotetramat]",SPAT observed control %,[1]; SPAT alone 6.25 ppm,0%
same,SPAT observed control %,[1]; SPAT alone 12.5 ppm,0%
same,SPAT observed control %,[1]; SPAT alone 25 ppm,0%
same,SPAT observed control %,[1]; SPAT alone 50 ppm,0%
same,SPAT observed control %,[1]; SPAT alone 100 ppm,0%
same,SPAT observed control %,[1]; SPAT alone 200 ppm,55%
"CC1(C)[C@H](C(=O)O[C@H](C#N)c2cccc(Oc3ccccc3)c2)[C@@H]1C=C(Br)Br [DMET, deltamethrin]",DMET observed control %,[1]; DMET alone 0.0062 ppm,0%
same,DMET observed control %,[1]; DMET alone 0.0125 ppm,0%
same,DMET observed control %,[1]; DMET alone 0.025 ppm,0%
same,DMET observed control %,[1]; DMET alone 0.05 ppm,0%
same,DMET observed control %,[1]; DMET alone 0.1 ppm,0%
same,DMET observed control %,[1]; DMET alone 0.2 ppm,0%
same,DMET observed control %,[1]; DMET alone 0.4 ppm,0%
same,DMET observed control %,[1]; DMET alone 0.8 ppm,0%
CC(NC(=O)C1CC1)c1ccc(N2CCC(c3cc(C(F)(F)F)cc(C(F)(F)F)c3)(C(F)(F)F)C2)cc1 (mixture of isomers) [Compound B15],B15 observed control %,[2]; B15 alone 0.187 ppm,0%
same,B15 observed control %,[2]; B15 alone 0.375 ppm,0%
same,B15 observed control %,[2]; B15 alone 0.75 ppm,0%
same,B15 observed control %,[2]; B15 alone 1.5 ppm,30%
same,B15 observed control %,[1]; B15 alone 0.05 ppm (Table 2),0%
same,B15 observed control %,[1]; B15 alone 0.1 ppm (Table 1),55%
same,B15 observed control %,[1]; B15 alone 0.1 ppm (Table 2),0%
same,B15 observed control %,[1]; B15 alone 0.2 ppm (Table 1),75%
same,B15 observed control %,[1]; B15 alone 0.2 ppm (Table 2),85%
same,B15 observed control %,[1]; B15 alone 0.4 ppm (Table 1),75%
same,B15 observed control %,[1]; B15 alone 0.4 ppm (Table 2),90%
same,B15 observed control %,[1]; B15 alone 0.8 ppm (Table 1),85%
same,B15 observed control %,[1]; B15 alone 0.8 ppm (Table 2),90%
same,B15 observed control %,[1]; B15 alone 1.6 ppm (Table 1),95%
"O=[N+]([O-])NC1=NCCN1Cc1ccc(Cl)nc1 [IMID, imidacloprid]",IMID observed control %,[2]; IMID alone 12.5 ppm,0%
same,IMID observed control %,[2]; IMID alone 25 ppm,0%
same,IMID observed control %,[2]; IMID alone 50 ppm,0%
same,IMID observed control %,[2]; IMID alone 100 ppm,0%
same,IMID observed control %,[2]; IMID alone 200 ppm,0%
same,IMID observed control %,[2]; IMID alone 400 ppm,0%
